How the values were obtained:
[1] = system: MDA-MB-468 (KRAS, NRAS-wt); experiment: Anti-proliferation assay on MDA-MB-468; format: cell-based; conditions: for GI50: Homo sapiens, MDA-MB-468, 72 h treatment, average with SD (n = 3, duplicate); for antiproliferative activity fold lower on MDA-MB-468 cells than on HCT-116 harboring KRAS-G13D mutation: MDA-MB-468 versus HCT-116; for times less active on MDA-MB-468 cells harboring wtRAS than on SW480 cells with KRAS-G12V mutation: MDA-MB-468 versus SW480
Experimental: (§1) Ba/F3-parental, OCI-AML3, U397 cells were purchased from DSMZ. MDA-MB-231, HCT-116, AsPC-1, H358, HT-29, SW480, and DU-145 cells were obtained from KCLB. MDA-MB-468 cells were obtained from ATCC. All cells were maintained in RPMI with 10% FBS and antibiotics. Cells were grown in a humidified 5% CO2 incubator at 37°C. Ba/F3-parental cells were grown in the presence of 10 ng/ml IL-3. NRAS-G12D or NRAS-G12V transformed Ba/F3 cell lines (Ba/F3-NRAS-G12D, and Ba/F3-NRAS-G12V, respectively) were cultured without IL-3, which were established by the procedure described as previously ([30]).
(§2) Approximately 3.0 × 10^3 cells/well were seeded in a 96-well cell culture plate. After stabilization, 1/3 serially diluted compound in DMSO was treated to the cell. […] All GI50 values were obtained in duplicate with three independent assays and averages with standard deviation are presented.

[2] = system: OCI-AML3 (NRAS-Q61L); experiment: Anti-proliferation assay on OCI-AML3; format: cell-based, human; conditions: Homo sapiens, OCI-AML-3; 72 h treatment; average with SD (n = 3, duplicate)
Experimental: as §1, §2

[3] = system: cancer cells harboring mtRAS; experiment: Soft agar assay (3D clonogenic assay); format: cell-based; conditions: 0.1 μM, 14 days
Experimental: Soft agar assay was conducted for 3D clonogenic assay. On the 0.7% bottom agar, cells were seeded in 6-well plate (5 × 10^3 cells/well) with 0.35% low melting agar (Lonza, #50101) containing the complete media. The cells were treated with indicated compounds for 14 days at 37°C. Colonies were stained by iodonitrotetrazolium chloride (Sigma-Aldrich, I8377) for overnight. The total area of each well was observed without magnification, and the number of colonies of each well were determined using ImageJ software (n = 3).
Figure 8 (A–F) Soft agar assay results for evaluating the effect of SIJ1795 and SIJ1772 on anchorage independent growth abilities on cancer cells harboring mtRAS. Cells were incubated with indicated compounds (0.01 µM or 0.1 µM) for 14 days. After staining with crystal violet, colonies were photographed without magnification. (G–L) Number of colonies (% of control) upon treatment with indicated compounds at 0.1 µM concentration were determined by ImageJ (n = 3, respectively). Statistical significance was calculated by a one-way ANOVA analysis (*p < 0.05, **p < 0.01, ***p < 0.001, ****p < 0.0001).

[4] = system: SW480 (KRAS-G12V); experiment: Anti-proliferation assay on SW480; format: cell-based; conditions: Homo sapiens, SW480; 72 h treatment; average with SD (n = 3, duplicate)
Experimental: as §1, §2

[5] = system: H358 (KRAS-G12C); experiment: Anti-proliferation assay on H358; format: cell-based; conditions: Homo sapiens, NCI-H358; 72 h treatment; average with SD (n = 3, duplicate)
Experimental: as §1, §2

GI50 [1] [nM]	GI50 [2] [nM]	GI50 [4] [nM]	GI50 [5] [nM]	Compound	antiproliferative activity fold lower on MDA-MB-468 cells than on HCT-116 harboring KRAS-G13D mutation [1] [fold]	times less active on MDA-MB-468 cells harboring wtRAS than on SW480 cells with KRAS-G12V mutation [1] [times]	anchorage independent cell growth [3]
44900 ± 6260	65 ± 29	447 ± 173	125 ± 17	Cc1ccc(NC(=O)c2cccc(C(F)(F)F)c2)cc1N1Cc2cnc(Nc3cnn(C4CCN(S(C)(=O)=O)CC4)c3)nc2N(C)C1=O [SIJ1772, N-(4-Methyl-3-(1-methyl-7-((1-(1-(methylsulfonyl)piperidin-4-yl)-1H-pyrazol-4-yl)amino)-2-oxo-1,4-dihydropyrimido[4,5-d]pyrimidin-3(2H)-yl)phenyl)-3-(trifluoromethyl)benzamide]	1182	101	suppressed
15700 ± 5310	52 ± 52	245 ± 12	203 ± 12	CCN1CCN(c2cccc(Nc3ncc4c(n3)N(C)C(=O)N(c3cc(NC(=O)c5cccc(C(F)(F)F)c5)ccc3C)C4)c2)CC1 [SIJ1795, N-(3-(7-((3-(4-Ethylpiperazin-1-yl)phenyl)amino)-1-methyl-2-oxo-1,4-dihydropyrimido[4,5-d]pyrimidin-3(2H)-yl)-4-methylphenyl)-3-(trifluoromethyl)benzamide]	476	64	suppressed

From publication PMC8695447, “Novel Small Molecules Capable of Blocking mtRAS-Signaling Pathway” (Frontiers in Oncology, 2021)
